Strand notation (5' to 3'): a small letter for the sugar, then the base; units joined by * are phosphorothioate-linked, units joined directly phosphodiester-linked; [ ] holds rarer units or linkages, { } end groups; capitals alone tell only the bases. e = 2'-O-(2-methoxyethyl) (MOE); [5mC] = 5-methylcytosine; d = 2'-deoxy (DNA)
What was measured:
human PKK mRNA [1] = assay: Antisense inhibition of human PKK mRNA in HepaRG cells, 5,000 nM (Example 2); format: cell-based; details: HepaRG cells, electroporation with 5,000 nM antisense oligonucleotide, PKK mRNA by RT-PCR (RTS3454), relative to untreated control cells
In short: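 Percent inhibition of PKK mRNA is reported relative to untreated cells, after adjustment for total RNA by RIBOGREEN. Gapmers of 16–20 nucleosides with 2′-MOE wings were delivered at 5,000 nM by electroporation into HepaRG cells and left for roughly 24 hours before RNA isolation.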

human PKK mRNA [2] = assay: Dose-dependent antisense inhibition of human PKK in HepaRG cells, 0.19-5.00 uM (Example 5); format: cell-based; details: HepaRG cells; for percent inhibition of PKK mRNA, 0.19 μM: 0.19 μM antisense oligonucleotide; for percent inhibition of PKK mRNA, 0.56 μM: 0.56 μM antisense oligonucleotide; for percent inhibition of PKK mRNA, 1.67 μM: 1.67 μM antisense oligonucleotide; for percent inhibition of PKK mRNA, 5.00 μM: 5.00 μM antisense oligonucleotide
In short: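 HepaRG cells (20,000/well) were electroporated with antisense oligonucleotide at 0.19, 0.56, 1.67 and 5.00 μM and treated for about 16 hours. PKK mRNA was quantified by qRT-PCR with primer probe set RTS3454, normalised to RIBOGREEN total RNA, and IC50 was derived per oligonucleotide.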

[3] = approximately 24 hours, Table 6 experiment
[4] = electroporation, approximately 16 hours, Table 35
[5] = 4 point dose response, Table 35
[6] = electroporation, approximately 16 hours, Table 38
[7] = electroporation, approximately 16 hours, Table 39
[8] = electroporation, approximately 16 hours, Table 37
[9] = 4 point dose response, Table 37
[10] = electroporation, approximately 16 hours, Table 36

Substance: 547335 (antisense eT*eT*eA*eT*eA*dA*dA*dT*dG*dT*d[5mC]*dT*d[5mC]*dG*dA*eT*eG*eG*e[5mC]*eA) [compound 547335]
- % inhibition (human PKK mRNA [1]; [3]): 93%
- percent inhibition of PKK at 0.19 μM (human PKK mRNA [2]; [4]): 8%
- percent inhibition of PKK at 0.56 μM (human PKK mRNA [2]; [4]): 52%
- percent inhibition of PKK at 1.67 μM (human PKK mRNA [2]; [4]): 85%
- percent inhibition of PKK at 5.00 μM (human PKK mRNA [2]; [4]): 92%
- IC50 (human PKK mRNA [2]; [5]): 700 nM
- percent inhibition of PKK mRNA, 0.19 μM (human PKK mRNA [2]): 0%
- percent inhibition of PKK mRNA, 0.56 μM (human PKK mRNA [2]): 13%
- percent inhibition of PKK mRNA, 1.67 μM (human PKK mRNA [2]): 73%
- percent inhibition of PKK mRNA, 5.00 μM (human PKK mRNA [2]): 95%
- IC50 (human PKK mRNA [2]; 0.19-5.00 μM): 1300 nM

Substance: 547337 (antisense eA*eA*e[5mC]*eT*e[5mC]*d[5mC]*dT*dT*dT*dA*dT*dA*dA*dA*dT*eG*eT*e[5mC]*eT*e[5mC]) [compound 547337]
- % inhibition (human PKK mRNA [1]; [3]): 84%
- percent inhibition of PKK at 0.19 μM (human PKK mRNA [2]; [6]): 23%
- percent inhibition of PKK at 0.56 μM (human PKK mRNA [2]; [6]): 41%
- percent inhibition of PKK at 1.67 μM (human PKK mRNA [2]; [6]): 55%
- percent inhibition of PKK at 5.00 μM (human PKK mRNA [2]; [6]): 79%
- IC50 (human PKK mRNA [2]; 4 point dose response, Table 38): 1000 nM

Substance: 547340 (antisense e[5mC]*eT*e[5mC]*e[5mC]*eT*d[5mC]*dT*d[5mC]*dA*dT*dA*dT*d[5mC]*dA*dA*e[5mC]*eT*e[5mC]*e[5mC]*eT) [compound 547340]
- % inhibition (human PKK mRNA [1]; [3]): 93%
- percent inhibition of PKK at 0.19 μM (human PKK mRNA [2]; [4]): 46%
- percent inhibition of PKK at 0.56 μM (human PKK mRNA [2]; [4]): 79%
- percent inhibition of PKK at 1.67 μM (human PKK mRNA [2]; [4]): 88%
- percent inhibition of PKK at 0.19 0μM (human PKK mRNA [2]; 0.19 0μM, electroporation, approximately 16 hours, Table 41): 34%
- percent inhibition of PKK at 0.56 0μM (human PKK mRNA [2]; 0.56 0μM, electroporation, approximately 16 hours, Table 41): 84%
- percent inhibition of PKK at 1.67 1μM (human PKK mRNA [2]; 1.67 1μM, electroporation, approximately 16 hours, Table 41): 96%
- IC50 (human PKK mRNA [2]; [5]): 200 nM
- IC50 (human PKK mRNA [2]; 4 point dose response, Table 41): 300 nM

Substance: 547341 (antisense eG*eA*e[5mC]*eT*e[5mC]*d[5mC]*dT*d[5mC]*dT*d[5mC]*dA*dT*dA*dT*d[5mC]*eA*eA*e[5mC]*eT*e[5mC]) [compound 547341]
- % inhibition (human PKK mRNA [1]; [3]): 87%
- percent inhibition of PKK at 0.19 μM (human PKK mRNA [2]; [7]): 36%
- percent inhibition of PKK at 0.56 μM (human PKK mRNA [2]; [7]): 58%
- percent inhibition of PKK at 1.67 μM (human PKK mRNA [2]; [7]): 91%
- percent inhibition of PKK at 5.00 μM (human PKK mRNA [2]; [7]): 95%
- IC50 (human PKK mRNA [2]; 4 point dose response, Table 39): 300 nM
- percent inhibition of PKK mRNA, 0.19 μM (human PKK mRNA [2]): 45%
- percent inhibition of PKK mRNA, 0.56 μM (human PKK mRNA [2]): 44%
- percent inhibition of PKK mRNA, 1.67 μM (human PKK mRNA [2]): 81%
- percent inhibition of PKK mRNA, 5.00 μM (human PKK mRNA [2]): 95%
- IC50 (human PKK mRNA [2]; 0.19-5.00 μM): 600 nM

Substance: 547349 (antisense e[5mC]*eT*eT*e[5mC]*eA*dA*d[5mC]*dA*d[5mC]*dT*dG*d[5mC]*dT*dA*dA*e[5mC]*e[5mC]*eT*eT*eA) [compound 547349]
- % inhibition (human PKK mRNA [1]; [3]): 88%
- percent inhibition of PKK at 0.19 μM (human PKK mRNA [2]; [8]): 0%
- percent inhibition of PKK at 0.56 μM (human PKK mRNA [2]; [8]): 8%
- percent inhibition of PKK at 1.67 μM (human PKK mRNA [2]; [8]): 66%
- percent inhibition of PKK at 5.00 μM (human PKK mRNA [2]; [8]): 76%
- IC50 (human PKK mRNA [2]; [9]): 1600 nM

Substance: 547360 (eA*eA*e[5mC]*e[5mC]*eA*dA*dT*dT*dT*d[5mC]*dT*dG*dA*dA*dA*eG*eG*eG*e[5mC]*eA; antisense) [compound 547360]
- % inhibition (human PKK mRNA [1]; [3]): 88%
- percent inhibition of PKK at 0.19 μM (human PKK mRNA [2]; [8]): 8%
- percent inhibition of PKK at 0.56 μM (human PKK mRNA [2]; [8]): 27%
- percent inhibition of PKK at 1.67 μM (human PKK mRNA [2]; [8]): 76%
- percent inhibition of PKK at 5.00 μM (human PKK mRNA [2]; [8]): 76%
- IC50 (human PKK mRNA [2]; [9]): 800 nM

Substance: 547364 (eG*eA*eA*e[5mC]*e[5mC]*d[5mC]*dT*dG*dG*d[5mC]*dA*dA*d[5mC]*dA*dT*e[5mC]*e[5mC]*eA*e[5mC]*eA; antisense) [compound 547364]
- % inhibition (human PKK mRNA [1]; Table 7, approx. 24 hours): 92%
- percent inhibition of PKK at 0.19 μM (human PKK mRNA [2]; [10]): 38%
- percent inhibition of PKK at 0.56 μM (human PKK mRNA [2]; [10]): 47%
- percent inhibition of PKK at 1.67 μM (human PKK mRNA [2]; [10]): 54%
- percent inhibition of PKK at 5.00 μM (human PKK mRNA [2]; [10]): 89%
- IC50 (human PKK mRNA [2]; 4 point dose response, Table 36): 600 nM

Reference: US11840686B2, “Modulation of prekallikrein (PKK) expression” (Ionis Pharmaceuticals, Inc., priority 2013, dated 2023)
